# Assay results: patent publication US20230111310A1, “CARBOXYLIC ACID DERIVATIVE-SUBSTITUTED IMINO ARYL COMPOUND, PREPARATION METHOD THEREFOR, HERBICIDAL COMPOSITION AND USE THEREOF” (Qingdao Kingagroot Chemical Compound Co., Ltd., priority 2020, published 2023)
# What was measured:
# Assay in all cases: Weeding effect in post-emergence stage
# Assay type in all cases: in vivo
# Settings in all cases: fresh weight control rate level
# [1] = tested on: Abutilon theophrasti
# In short: (§1)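 Doses of 500, 250, 125, 60, 30, 15 and 7.5 g/ha, with methyl oleate synergist (1.5 liter/ha) and Tween 80 from acetone solution, applied by spray tower post-emergence (2–3 leaf stage). Weed control scored after 3 further greenhouse weeks, averaged over triplicates.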
# [2] = tested on: Alopecurus japonicus
# In short: as §1
# [3] = tested on: Digitaria sanguinalis
# In short: as §1
# [4] = tested on: Eleusine indica
# In short: as §1
# [5] = tested on: Setaria viridis
# In short: as §1
# [6] = tested on: Echinochloa crusgalli
# In short: as §1
Structure (SMILES),"Weeding effect in post-emergence stage, Abutilon theophrasti (level) ([1]; Dose 60 g/ha)","Weeding effect in post-emergence stage, Alopecurus japonicus (level) ([2]; Dose 60 g/ha)","Weeding effect in post-emergence stage, Digitaria sanguinalis (level) ([3]; Dose 60 g/ha)","Weeding effect in post-emergence stage, Eleusine indica (level) ([4]; Dose 60 g/ha)","Weeding effect in post-emergence stage, Setaria viridis (level) ([5]; Dose 60 g/ha)","Weeding effect in post-emergence stage, Echinochloa crusgalli (level) ([6]; Dose 60 g/ha)",other results
COC(=O)C(C)O/N=C/c1cc(-n2c(=S)cc(C(F)(F)F)n(C)c2=S)c(F)cc1C(F)(F)F (racemic) [Compound 392],5 (Level 5: growth control rate is above 85%),5 (Level 5: growth control rate is above 85%),5 (Level 5: growth control rate is above 85%),5 (Level 5: growth control rate is above 85%),5 (Level 5: growth control rate is above 85%),5 (Level 5: growth control rate is above 85%),
COC(=O)C(C)O/N=C/c1cc(-n2c(=S)cc(C(F)(F)F)n(C)c2=S)c(F)cc1C#N (racemic) [Compound 393],5 (Level 5: growth control rate is above 85%),5 (Level 5: growth control rate is above 85%),5 (Level 5: growth control rate is above 85%),5 (Level 5: growth control rate is above 85%),5 (Level 5: growth control rate is above 85%),5 (Level 5: growth control rate is above 85%),
COC(=O)C(C)O/N=C/c1cc(-n2c(=O)cc(C(F)(F)F)n(C)c2=S)c(F)cc1Br (racemic) [Compound 394],5 (Level 5: growth control rate is above 85%),5 (Level 5: growth control rate is above 85%),5 (Level 5: growth control rate is above 85%),5 (Level 5: growth control rate is above 85%),5 (Level 5: growth control rate is above 85%),5 (Level 5: growth control rate is above 85%),
COC(=O)C(C)O/N=C/c1cc(-n2c(=O)cc(C(F)(F)F)n(C)c2=S)c(F)cc1C(F)(F)F (racemic) [Compound 395],5 (Level 5: growth control rate is above 85%),5 (Level 5: growth control rate is above 85%),5 (Level 5: growth control rate is above 85%),5 (Level 5: growth control rate is above 85%),5 (Level 5: growth control rate is above 85%),5 (Level 5: growth control rate is above 85%),
COC(=O)C(C)O/N=C/c1cc(-n2c(=O)cc(C(F)(F)F)n(C)c2=S)c(F)cc1C#N (racemic) [Compound 396],5 (Level 5: growth control rate is above 85%),5 (Level 5: growth control rate is above 85%),5 (Level 5: growth control rate is above 85%),5 (Level 5: growth control rate is above 85%),5 (Level 5: growth control rate is above 85%),5 (Level 5: growth control rate is above 85%),
COC(=O)C(CC(C)C)O/N=C/c1cc(-n2c(=O)cc(C(F)(F)F)n(C)c2=O)c(F)cc1Cl (racemic) [Compound 455],,,,,,,"Weeding effect in post-emergence stage, Abutilon theophrasti (level) ([1]; Dose 15 g/ha): 5 (Level 5: growth control rate is above 85%); Weeding effect in post-emergence stage, Alopecurus japonicus (level) ([2]; Dose 15 g/ha): 5 (Level 5: growth control rate is above 85%); Weeding effect in post-emergence stage, Digitaria sanguinalis (level) ([3]; Dose 15 g/ha): 5 (Level 5: growth control rate is above 85%); Weeding effect in post-emergence stage, Eleusine indica (level) ([4]; Dose 15 g/ha): 5 (Level 5: growth control rate is above 85%); Weeding effect in post-emergence stage, Setaria viridis (level) ([5]; Dose 15 g/ha): 5 (Level 5: growth control rate is above 85%); Weeding effect in post-emergence stage, Echinochloa crusgalli (level) ([6]; Dose 15 g/ha): 5 (Level 5: growth control rate is above 85%)"
COC(=O)C(O/N=C/c1cc(-n2c(=O)cc(C(F)(F)F)n(C)c2=O)c(F)cc1Cl)C1CC1 (racemic) [Compound 456],,,,,,,"Weeding effect in post-emergence stage, Abutilon theophrasti (level) ([1]; Dose 30 g/ha): 5 (Level 5: growth control rate is above 85%); Weeding effect in post-emergence stage, Alopecurus japonicus (level) ([2]; Dose 30 g/ha): 5 (Level 5: growth control rate is above 85%); Weeding effect in post-emergence stage, Digitaria sanguinalis (level) ([3]; Dose 30 g/ha): 5 (Level 5: growth control rate is above 85%); Weeding effect in post-emergence stage, Eleusine indica (level) ([4]; Dose 30 g/ha): 5 (Level 5: growth control rate is above 85%); Weeding effect in post-emergence stage, Setaria viridis (level) ([5]; Dose 30 g/ha): 5 (Level 5: growth control rate is above 85%); Weeding effect in post-emergence stage, Echinochloa crusgalli (level) ([6]; Dose 30 g/ha): 5 (Level 5: growth control rate is above 85%)"
